Patent publication US20070003483A1, “Method of evaluating organ function” (Oxygenix Co., Ltd., priority 2003, published 2007)

Assays:
Mrp2 [1] = experiment: Immunohistochemical analysis of subcellular Mrp2 distribution in 8-hr cold ischemia-reperfused grafts; set-up: species or system rat; details: 8-hr cold ischemia and 60-min reperfusion
Text: To evaluate Mrp2 in hepatocytes of the grafts, the liver samples were fixed, sliced, and stained with a monoclonal antibody M2III-6, according to previous study (32). The antigen on the sections was visualized by phycoerythrin-conjugated anti-mouse IgG and observed through laser confocal microfluorography at 488 nm as described elsewhere (20, 30). In order to examine BC localization and hepatocellular internalization of Mrp2, the sections were double immunostained with a monoclonal antibody against ZO-1, another marker expressed in hepatocellular junction (33). To determine changes in the protein distribution in a semi-quantitative manner, single-stained microfluorographs of Mrp2 were converted as monochrome 8-bit images (14). The gray levels (1-256) were measured at both cytoplasmic and canalicular domains in a single hepatocytes. At least 5 different sites for each domain were chosen in a single cell to calculate the relative values of cytoplasmic intensities versus the corresponding canalicular intensities. Such a measurement was carried out in 40-60 hepatocytes in 4 different grafts to construct histograms of the percentage cytoplasmic intensities of Mrp2-associated immunoreactivities, being defined as % I-Mrp2(cyt/bc). The elevation of this index represented an increase in the Mtp2 internalization. […]

Mrp2 [2] = target: T1, Mrp2 (Rattus norvegicus, UniProt Q63120); experiment: Biliary excretion rates of carboxyfluorescein (T1/2 of dye exclusion) in whole perfused liver grafts; details: normoperfused grafts in the presence of 1.5 mM probenecid
T1 construct: Livers of these rats were perfused ex vivo with the oxygenated Krebs-Henseleit buffer; from tissue; host or cells: whole rat liver grafts (Wistar), perfused ex vivo
T1 sequence (Q63120 whole entry, the tested form may be a part): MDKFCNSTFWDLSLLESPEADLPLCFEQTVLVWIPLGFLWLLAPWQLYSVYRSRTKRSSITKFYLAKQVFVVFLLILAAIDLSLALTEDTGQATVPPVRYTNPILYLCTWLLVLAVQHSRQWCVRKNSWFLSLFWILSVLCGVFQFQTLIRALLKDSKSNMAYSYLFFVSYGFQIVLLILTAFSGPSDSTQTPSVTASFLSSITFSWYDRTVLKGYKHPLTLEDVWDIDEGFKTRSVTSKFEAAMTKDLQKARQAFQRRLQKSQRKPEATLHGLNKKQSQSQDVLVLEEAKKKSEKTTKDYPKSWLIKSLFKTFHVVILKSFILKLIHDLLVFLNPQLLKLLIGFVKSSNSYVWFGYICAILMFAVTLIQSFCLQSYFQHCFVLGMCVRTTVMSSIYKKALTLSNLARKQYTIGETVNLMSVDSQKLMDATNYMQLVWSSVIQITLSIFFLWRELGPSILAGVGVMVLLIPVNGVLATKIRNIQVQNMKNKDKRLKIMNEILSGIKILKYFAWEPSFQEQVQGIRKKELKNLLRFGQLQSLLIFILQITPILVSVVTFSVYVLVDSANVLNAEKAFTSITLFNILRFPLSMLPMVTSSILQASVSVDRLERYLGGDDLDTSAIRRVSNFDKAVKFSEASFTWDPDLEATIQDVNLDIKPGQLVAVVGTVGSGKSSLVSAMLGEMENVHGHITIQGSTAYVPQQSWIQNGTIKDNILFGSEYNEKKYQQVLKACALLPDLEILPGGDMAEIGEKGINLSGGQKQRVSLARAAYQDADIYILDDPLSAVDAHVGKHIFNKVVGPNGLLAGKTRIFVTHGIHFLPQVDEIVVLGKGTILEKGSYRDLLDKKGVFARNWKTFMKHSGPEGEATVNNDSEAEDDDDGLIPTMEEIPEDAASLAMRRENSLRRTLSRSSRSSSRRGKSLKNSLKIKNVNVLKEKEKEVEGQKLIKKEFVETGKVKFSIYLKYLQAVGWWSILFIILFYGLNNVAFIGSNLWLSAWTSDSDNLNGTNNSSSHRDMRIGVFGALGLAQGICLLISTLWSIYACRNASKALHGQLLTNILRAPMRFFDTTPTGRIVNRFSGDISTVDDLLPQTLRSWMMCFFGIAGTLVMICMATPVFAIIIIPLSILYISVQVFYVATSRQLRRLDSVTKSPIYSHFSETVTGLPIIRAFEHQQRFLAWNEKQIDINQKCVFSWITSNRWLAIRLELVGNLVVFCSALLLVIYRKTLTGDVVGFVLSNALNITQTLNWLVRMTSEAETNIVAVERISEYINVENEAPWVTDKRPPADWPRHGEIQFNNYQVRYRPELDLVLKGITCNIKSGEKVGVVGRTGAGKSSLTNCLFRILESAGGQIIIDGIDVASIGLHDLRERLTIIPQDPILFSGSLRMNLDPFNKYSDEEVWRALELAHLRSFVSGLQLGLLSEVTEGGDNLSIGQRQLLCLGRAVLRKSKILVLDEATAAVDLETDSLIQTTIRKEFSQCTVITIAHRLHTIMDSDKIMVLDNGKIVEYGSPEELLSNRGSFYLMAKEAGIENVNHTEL
Experimental: (§1) Male Wistar rats (220-260 g, CLEA Japan, Tokyo) and Eisai hyperbilirubinemia rats (EHBR) (220-260 g, Sankyo Inc., Tokyo) that had been allowed free access to laboratory chow and tap water were fasted 24 hrs before experiments. Livers of these rats were perfused ex vivo with the oxygenated Krebs-Henseleit buffer as the base-line perfusate (17, 18), and stored in the University of Wisconsin solution at 4° C. for desired lengths of time (14). When necessary, rats were pretreated with an intravenous injection of liposome-encapsulated dichloromethylene diphosphonate (LDD) at 24 hrs prior to preparation of the ex-vivo liver perfusion for the cold storage according to our previous studies (14, 19). […]
Carboxyfluorescein (CF) is an organic anion which excreted from various cells through Mrp2 (26, 27). […] Bile samples collected from these preparations were deep-frozen until the fluorescence measurements were carried out using a 96-well multi-channel fluorescence spectrophotometer. The measurements were performed under epi-illumination at 440 nm, the isosbestic wavelength of the dye which yields fluorescence at 510 nm without interference with pH values of the samples (26). […] With this assumption, biliary CF lifetimes were determined as the T1/2 of the exponential decay.

Mrp2 [3] = target: T1, Mrp2; experiment: In situ visualization of hepatocellular CF exclusion by intravital laser confocal microfluorography in perfused liver grafts; details: grafts perfused with 1.5 mM probenecid
Experimental: as §1
Liver grafts loaded with CF using the aforementioned protocols were observed through intravital laser confocal microfluorography as described previously (14, 20, 30). […] To calibrate the fluorescence intensities, known concentrations of CF were prepared in vitro and the images were captured under the identical optical parameters of the camera. Gray levels in hepatocytes were measured by variable square window (2×2 μm^2) using digital image processor (18, 31). At least 10 different hepatocytes in the microscopic fields of interests were analyzed in a single experiment.

Row | Compound | Mrp2 internalization (reduced BC localization, elevated cytoplasmic intensity) (Mrp2 [1]) | transient increase of CF concentrations in bile (Mrp2 [2]) | decay of hepatocellular CF fluorescence (Mrp2 transport) (Mrp2 [3])
1 | O=C(O)/C=C/c1ccc(Cn2ccnc2)cc1 [OKY-046] | attenuated | – | –
2 | CCCN(CCC)S(=O)(=O)c1ccc(C(=O)O)cc1 [probenecid] | – | not observed | substantially slowed
